≈ marks a conversion by molar mass, not a printed value.
Experiments:
[1] = test system: Dermacentor variabilis nymph; assay: Antiparasitic activity after administration to rats: ticks; assay type: in vivo; conditions: 11.97 mg/kg sc, Dermacentor variabilis nymph
How it was run: (§1)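 Compounds dissolved in glycerol formal, given i.p. or s.c. to rats, 5 per group. Infestation with 30 D. variabilis nymphs (days −2, 7, 14, 21, 28, 35) and 30 adult C. felis (days −1, 8, 15, 22, 29, 36), with counts on days 2, 9, 16, 23, 30, 37. Percent efficacy compares mean live attached ticks or live fleas with a placebo-treated group.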

[2] = Evaluation of pharmacokinetics in vivo (rat); conditions: concentration of Parent Drug A after admin. of the named substance
Protocol: Evaluation of Pharmacokinetics (In Vivo) To evaluate the pharmacokinetics of test substances in vivo, these test substances are dissolved in appropriate formulation vehicles (ethanol, dimethyl sulfoxide, PEG400, glycerol formal etc.), or mixtures thereof. The test substances are then administered to rats or dogs intravenously, orally or subcutaneously. The intravenous application is performed as bolus. Administered doses range usually between 0.1 to 5 mg/kg, however, doses for subcutaneous and oral administration can exceed this range up to doses of 30 mg/kg. Blood samples are retrieved via a catheter, exsanguination or venous puncture in vials containing appropriate anticoagulants, such as lithium heparinate or potassium EDTA. Plasma is generated from the blood via centrifugation. Blood samples are taken over an appropriate time interval, usually lasting up to 144 h after administration. If necessary, samples from later time points can also be taken. If possible, time points are chosen so that the initial absorption phase, the maximum plasma concentration (Cmax), and exposure within a certain time interval (AUC(0-t))aer described. Furthermore, it is possible to also retrieve organ-, tissue- and urine samples. The quantitative measurement of the test substances in the samples is performed using calibration curves in the respective matrices. The protein content of the samples is precipitated using acetonitrile or methanol. Thereafter, the samples are separated using HPLC in combination with reversed phase chromatography columns. The HPLC system is coupled to a triple quadrupole mass spectrometer via an electrospray interface. The evaluation of the plasma concentration/time profiles are afterwards evaluated using a validated pharmacokinetics evaluation program. […] Relative bioavailability (Frel) was used to describe the exposure of parent drug after prodrug administration compared to the exposure of parent drug after direct administration of compound A which was normalised to 100%.

[3] = Measurement of solubility in buffer at pH 6.5; assay type: physicochemical; conditions: aqueous buffer, kinetic from dmso stock; PBS buffer pH 6.5, shaken 24 h at rt, LC-MSMS; read-out: Solubility of example compounds at pH 6.5
How it was run: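 DMSO stock (50 g/L) diluted into PBS pH 6.5, nominal final […], shaken 24 h at rt. After centrifugation, supernatant concentration quantified by LC-MSMS against a 1.2–600 ng/mL calibration curve.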

[4] = Degradation of prodrugs and release of parent drug in rat plasma; assay type: in vitro ADME; conditions: male, Hannover-Janvier RjHan, rat plasma (Li-heparin), 37° C., percent area of prodrug at t0
How it was run: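 Prodrug spiked into male Hannover rat Li-heparin plasma at 37 °C. Samples at 0.17–4 h quenched in acetonitrile/citric acid pH 3, then analysed by HPLC, with HPLC-MS at final time point. Prodrug loss and parent drug appearance given as percent area of prodrug at t0.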

[5] = test system: Ctenocephalides felis adult; assay: Antiparasitic activity after administration to rats: fleas; assay type: in vivo; conditions: 11.97 mg/kg sc, Ctenocephalides felis adult
How it was run: as §1

Compound: N#CC1(N(COC(=O)/C=C/C(=O)O)C(=O)c2cc(-c3cnn(-c4c(Cl)cc(C(F)(C(F)(F)F)C(F)(F)F)cc4OC(F)(F)F)c3)ccc2Cl)CC1 [Example 13, (2E)-4-{[(2-Chloro-5-{1-[2-chloro-4-(1,1,1,2,3,3,3-heptafluoropropan-2-yl)-6-(trifluoromethoxy)phenyl]-1H-pyrazol-4-yl}benzoyl)(1-cyanocyclopropyl)amino]methoxy}-4-oxobut-2-enoic acid]
- In-vivo Efficacy SD2 ([1]; study day 2): 100%
- In-vivo Efficacy SD9 ([1]; study day 9): 100%
- In-vivo Efficacy SD16 ([1]; study day 16): 99%
- In-vivo Efficacy SD23 ([1]; study day 23): 77%
- In-vivo Efficacy SD30 ([1]; study day 30): 59%
- In-vivo Efficacy SD37 ([1]; study day 37): 49%
- AUC(0-144 h)norm of parent drug A ([2]; iv bolus): 7.3 kg·h/L
- AUC(0-144 h)norm of parent drug A ([2]; sc): 5.9 kg·h/L
- solubility at 24 h [3]: 18 µg/mL (≈ 23.2 µM)
- recovery at 0.17 h, 39 µg/mL ([4]; 0.17 h): 96%
- recovery at 0.5 h, 39 µg/mL ([4]; 0.5 h): 85%
- recovery at 1 h, 39 µg/mL ([4]; 1 h): 63%
- recovery at 1.5 h, 39 µg/mL ([4]; 1.5 h): 49%
- recovery at 2 h, 39 µg/mL ([4]; 2 h): 35%
- recovery at 4 h, 39 µg/mL ([4]; 4 h): 14%
- In-vivo Efficacy SD2 ([5]; study day 2): 100%
- In-vivo Efficacy SD9 ([5]; study day 9): 97%
- In-vivo Efficacy SD16 ([5]; study day 16): 96%
- In-vivo Efficacy SD23 ([5]; study day 23): 79%
- In-vivo Efficacy SD30 ([5]; study day 30): 57%
- In-vivo Efficacy SD37 ([5]; study day 37): 51%

— patent publication US20220306585A1, “PYRAZOLE DERIVATIVES FOR CONTROLLING ARTHROPODS” (Bayer Animal Health GmbH, priority 2019, published 2022)
